This passage reports cytotoxicity results from ChEMBL document CHEMBL3507680, “University of Dundee, Gates Library screen for HepG2 cell viability”.

The series in a line: Human HepG2 cell viability assay in 384 well format. In kind it is toxicity, cell-based. Also noted: dose 125 nL, time 70.5 hour; concentration not given beside the values. To be noted: HepG2 cells, read-out: Inhibition.
In the case of `CNC(=O)Cn1ccc2ccc(NC(=O)C(C)CSC)cc21` (centres undefined), the cytotoxicity at 70.5 h was -5.03%.

For the compound `Cn1cc(CCC(=O)NCc2ccccc2OC(C)(C)C)cn1`, the cytotoxicity at 70.5 h stood at 2.39%.

Regarding `Cc1nc(CCCC(=O)Nc2cccc(N3CCNC3=O)c2)cs1`, the cytotoxicity at 70.5 h came out at 0.608%.

Consider `O=C(NCc1ccnc(OCC(F)(F)F)c1)NCC1COCCO1` (centres undefined), for which the cytotoxicity at 70.5 h was -6.7%.

Regarding `COc1ccc(-n2cc(CNC(=O)c3ccc[nH]3)nn2)cc1`, the cytotoxicity at 70.5 h was -2.18%.

For `O=S(=O)(c1cncc(F)c1)N1CCSC2(CCCCC2)C1`, the cytotoxicity at 70.5 h was -10.2%.

As for `Cc1ccc(C2CN(CCCC#N)CCO2)c(C)c1` (centres undefined), the cytotoxicity at 70.5 h was -2.64%.

Regarding `Cn1cc(CNCC(c2ccc(Cl)cc2)n2cccn2)cn1` (centres undefined), the cytotoxicity at 70.5 h is -5.62%.

On to `Cc1noc(CN(CCO)Cc2cc(Br)ccc2F)n1`, for which the cytotoxicity at 70.5 h is -1.67%.

Regarding `N#Cc1c(CN2CCCC2Cn2cccn2)cn2ccccc12` (centres undefined), the cytotoxicity at 70.5 h was 18.8%.

In the case of `CC(C)(C)c1nc(CN(CCO)Cc2cc(Br)ccc2F)no1`, the cytotoxicity at 70.5 h is -3.27%.

As for `COCCN1CC(=O)N(C(C)C)C(C)(C)C1`, the cytotoxicity at 70.5 h worked out at 0.521%.

Regarding `Cc1ccc(C2CN(CCCS(=O)(=O)C(C)C)CCO2)c(C)c1` (centres undefined), the cytotoxicity at 70.5 h was -2.16%.

For the compound `Cc1noc(CNC(=O)NCC2(C)CCCc3ccccc32)n1` (centres undefined), the cytotoxicity at 70.5 h was -8.6%.

Take `Nc1cccnc1N1CCC(O)CC1`: the cytotoxicity at 70.5 h is -1.82%.

Consider `COc1ccc(Cl)cc1CN1CC(n2cccn2)C1`, for which the cytotoxicity at 70.5 h is -4.9%.

`CC(SCCC(=O)NC(N)=O)c1c(F)cccc1F` (centres undefined): the cytotoxicity at 70.5 h was -10.5%.

For the compound `Cc1noc(C)c1S(=O)(=O)N(CC(N)=O)CC(C)C`, the cytotoxicity at 70.5 h is -20.2%.

`CC(=O)N1CCCC1C(=O)N1CCC(=Cc2cccc(F)c2)CC1` (centres undefined): the cytotoxicity at 70.5 h is -14.8%.

For `N#CCCN(Cc1ccco1)C(=O)CCCNC(=O)c1ccccc1`, the cytotoxicity at 70.5 h is -15.9%.

`Cc1cccc(C(=O)N2CCN(C)CC2)c1NC(=O)c1ccncc1`: the cytotoxicity at 70.5 h amounted to 17.6%.

As for `O=C(CN1CCc2cncnc2C1)NC(C1CC1)C1CC1`, the cytotoxicity at 70.5 h is -12.3%.

As to `Cc1cccc(C(=O)N2CCSCC2)c1NC(=O)c1cccnc1`, the cytotoxicity at 70.5 h was -7.35%.

As to `CCC(C)(C)NC(=O)COC(=O)c1cc(C)ccc1NC(=O)N(C)C`, the cytotoxicity at 70.5 h was -7.98%.

With `COC(=O)CN(C(=O)c1ccco1)c1cccc(F)c1`, the cytotoxicity at 70.5 h is 16.3%.

`CN(C(=O)c1ccc(NC(=O)c2cc[nH]n2)cc1)C1CCCCC1`: the cytotoxicity at 70.5 h was -9.38%.

Turning to `Cc1cccc(C(=O)N2CCSCC2)c1NC(=O)c1ccsc1`, the cytotoxicity at 70.5 h was -8.36%.

Turning to `Cn1ccc(C(=O)Nc2nc(-c3ccc(Cl)cc3)n[nH]2)cc1=O`, the cytotoxicity at 70.5 h was found to be 24.6%.

On to `Cc1noc(CCCC(=O)NCC(c2ccco2)N2CCCC2)n1` (centres undefined), for which the cytotoxicity at 70.5 h was -14.9%.

On to `CCc1nnsc1C(=O)NCC1CN(CC(C)C)CCO1` (centres undefined), for which the cytotoxicity at 70.5 h stood at 22.5%.

Consider `Cc1ccc(C(NC(=O)CN2CCc3cncnc3C2)C2CC2)cc1` (centres undefined), for which the cytotoxicity at 70.5 h is -13.1%.

`CSCC(C)N(C)C(=O)CN1CCN(c2ccccn2)CC1` (centres undefined): the cytotoxicity at 70.5 h stood at 17.8%.

For `O=C(CN1CCc2cncnc2C1)NC(c1ccccc1)C1CC1` (centres undefined), the cytotoxicity at 70.5 h was -2.84%.

For the compound `CC(=O)N1CCCC(C(=O)N2CCC(=Cc3cccc(F)c3)CC2)C1` (centres undefined), the cytotoxicity at 70.5 h is -9.9%.

For `CCOc1ccccc1C(N)CC(C)C` (centres undefined), the cytotoxicity at 70.5 h was -0.686%.

`CC(c1ccccn1)N(C)C(=O)CN1CCN(c2ccccn2)CC1` (centres undefined): the cytotoxicity at 70.5 h was -11.5%.

Regarding `COc1ccc(CNC(=O)C(NC(=O)Cc2ccccc2)C(C)C)cn1` (centres undefined), the cytotoxicity at 70.5 h was determined as 30.6%.

On to `NC(=O)COc1ccc(C2NC(=O)CN2Cc2ccc(Br)cc2)cc1` (centres undefined), for which the cytotoxicity at 70.5 h was -14.8%.

For the compound `COc1cccnc1NC(=O)c1ccc(COCC(F)(F)F)cc1`, the cytotoxicity at 70.5 h is -8.83%.

In the case of `N#Cc1ccc(CCC(=O)N2CCC(CN3CCOCC3)CC2)cc1`, the cytotoxicity at 70.5 h came out at 23.1%.

As to `Cc1cc(C2NC(=O)CN2Cc2ccc(Br)cc2)cc(C)c1O` (centres undefined), the cytotoxicity at 70.5 h was 0.666%.

As for `Cc1n[nH]c(NC(=O)c2ccc(COCC(F)(F)F)cc2)c1C`, the cytotoxicity at 70.5 h is -10.3%.

In the case of `COc1ccc(CNC2CCc3ncnn3C2)cc1OCCCC#N` (centres undefined), the cytotoxicity at 70.5 h was -9.41%.

For the compound `COc1ccc(CNC2CCC(O)CC2)cc1OCCCC#N` (centres undefined), the cytotoxicity at 70.5 h was -5.82%.

On to `CNC(=O)CS(=O)(=O)NC1CCC(C)CC1` (centres undefined), for which the cytotoxicity at 70.5 h was -15.8%.

As to `CC(Oc1cc(Cl)cc(Cl)c1)C(=O)NCCS(N)(=O)=O` (centres undefined), the cytotoxicity at 70.5 h is -4%.

Take `N#CCCN(C(=O)CCc1cccnc1)c1ccc2c(c1)OCCO2`: the cytotoxicity at 70.5 h was -11.1%.

`Cc1noc(C)c1CNC(=O)Nc1ccc(N2CCOC(C)C2)cc1` (centres undefined): the cytotoxicity at 70.5 h was -13.8%.

Regarding `Cc1nc(CCCNC(=O)c2c(F)cc(F)cc2F)n[nH]1`, the cytotoxicity at 70.5 h was -7.17%.

In the case of `Cc1ccc(C(NC(=O)C2CC2)c2cccc(S(C)(=O)=O)c2)cc1` (centres undefined), the cytotoxicity at 70.5 h was -4.47%.

As to `Cc1noc(C)c1CNC(=O)Nc1ccc(N2CCOC2=O)cc1`, the cytotoxicity at 70.5 h is -17.5%.

Turning to `Cc1cc(C(=O)NC(C)CC(=O)c2cccs2)n(C)n1` (centres undefined), the cytotoxicity at 70.5 h was -12.7%.

As for `Cc1c(C(=O)NC2CCCOc3cc(Cl)ccc32)cnn1C` (centres undefined), the cytotoxicity at 70.5 h was -15.2%.

As for `Cc1nc(C)c(S(=O)(=O)NC(=O)c2ccsc2)s1`, the cytotoxicity at 70.5 h was -7%.

Take `COc1ccc(CNC2CCc3ncnn3C2)cc1OCC1CC1` (centres undefined): the cytotoxicity at 70.5 h is -14.4%.

For `CC(C)CC(NCc1cccs1)c1ccccn1` (centres undefined), the cytotoxicity at 70.5 h was -13.2%.

As for `CCC(=O)N(c1ccc(C(=O)OC)cc1C)C(C)C`, the cytotoxicity at 70.5 h was -3.07%.

Regarding `COc1ccc(NC(=O)Cc2c(C)nn(C)c2C)cc1F`, the cytotoxicity at 70.5 h was determined as 7.37%.

For the compound `CC(C)CNC(=O)Nc1cccc(OCC#N)c1`, the cytotoxicity at 70.5 h is -7.35%.

Regarding `CCC(C)NC(=O)Nc1cccc(OCC#N)c1` (centres undefined), the cytotoxicity at 70.5 h was -12.4%.

Take `CCC(C)NC(=O)Nc1cccc(OCCCC#N)c1` (centres undefined): the cytotoxicity at 70.5 h is -8.47%.

Turning to `CC(C)c1nc(CC(=O)Nc2cnccc2O)cs1`, the cytotoxicity at 70.5 h is -3.73%.

For `CC(C)(C)c1nc(CC(=O)Nc2cnccc2O)cs1`, the cytotoxicity at 70.5 h is -2.57%.

Regarding `O=C(Nc1ccccn1)c1ccc(F)c(S(=O)(=O)NC2CC2)c1`, the cytotoxicity at 70.5 h is -16.8%.

For `CC(C)N1CCC(NC(=O)c2cn(-c3ccc(F)cc3)nn2)C1` (centres undefined), the cytotoxicity at 70.5 h was -16.5%.

For `O=C(CCc1ccsc1)NCC1CCN(C2CC2)C1` (centres undefined), the cytotoxicity at 70.5 h was -7.4%.

Regarding `COc1ccc(Br)c(NC(=O)NCc2cnn(C)c2)c1`, the cytotoxicity at 70.5 h is -13.3%.

For the compound `CCc1cc(NCCCNS(C)(=O)=O)nc(-c2ccccn2)n1`, the cytotoxicity at 70.5 h was -7.43%.

For `O=C(NC1CCCN(Cc2c(F)cccc2F)C1)c1cc[nH]n1` (centres undefined), the cytotoxicity at 70.5 h was -18%.

`COC(=O)c1ccc(N(C(=O)c2ccncc2)C(C)C)c(C)c1`: the cytotoxicity at 70.5 h is -17.2%.

Regarding `COc1ccc(C)nc1NC(=O)CCc1c(C)nn(C)c1C`, the cytotoxicity at 70.5 h amounted to 6.42%.

Turning to `O=C(NCc1nncn1C1CC1)c1ccccc1Oc1cccnc1`, the cytotoxicity at 70.5 h is -7.51%.

Regarding `COc1ncc(NCc2ccc(Cl)c(Cl)c2)cc1C(N)=O`, the cytotoxicity at 70.5 h is -5.01%.

For `Cc1ccc(C(N)=O)cc1NCCOc1cccc(C#N)c1`, the cytotoxicity at 70.5 h was -4.01%.

As to `Cc1ccc(NS(=O)(=O)c2c[nH]c3ncccc23)nc1`, the cytotoxicity at 70.5 h was -2%.

Consider `Cc1cc(NS(=O)(=O)c2c[nH]c3ncccc23)no1`, for which the cytotoxicity at 70.5 h is 0.354%.

Take `Clc1cnccc1N1CCC(OC2CCOCC2)CC1`: the cytotoxicity at 70.5 h is -1.59%.

As to `CCCN(C1CCc2ccccc2C1)S(C)(=O)=O` (centres undefined), the cytotoxicity at 70.5 h is -2.87%.

On to `O=C(N1CCOCC1)N1CCN(c2ccncc2Cl)CC1`, for which the cytotoxicity at 70.5 h stood at 1.32%.

On to `Cc1cc(C)n(-c2ccc(N3CCCSCC3)nc2)n1`, for which the cytotoxicity at 70.5 h is -0.674%.

Turning to `Cc1cc(C)n(-c2ccc(N3CCC4(CC3)OCCO4)nc2)n1`, the cytotoxicity at 70.5 h amounted to 3.59%.

In the case of `Clc1cnccc1N1CCCC2(CCCOC2)C1` (centres undefined), the cytotoxicity at 70.5 h came out at 1.82%.

For the compound `CC(=O)NCCCNCc1ccc(Cl)c2cccnc12`, the cytotoxicity at 70.5 h was 0.472%.

Take `Cc1c(NCCCOc2cccc(C#N)c2)cccc1C(N)=O`: the cytotoxicity at 70.5 h amounted to 6.97%.

On to `CCCN(CCS(C)(=O)=O)C1CCc2ccccc2C1` (centres undefined), for which the cytotoxicity at 70.5 h is -0.462%.

For `OCC(CO)Nc1cccc(C(F)(F)F)n1`, the cytotoxicity at 70.5 h came to 1.04%.

On to `CCN(CC1CCCO1)C(=O)CSCC(=O)Nc1ccc(C)cc1` (centres undefined), for which the cytotoxicity at 70.5 h is -1.48%.

Regarding `CCN(CC1CCOC1)C(=O)CSCC(=O)Nc1ccc(C)cc1` (centres undefined), the cytotoxicity at 70.5 h is -2.49%.

`CCS(=O)(=O)NCCNCc1ccc(Cl)c2cccnc12`: the cytotoxicity at 70.5 h was -0.568%.

Consider `CC(C)c1ncc2c(n1)CN(Cc1cccc3c1OCCO3)CC2`, for which the cytotoxicity at 70.5 h is 0.0459%.

Turning to `COc1ccc(CCNC2CCCN(c3ccc(C)nn3)C2)cc1` (centres undefined), the cytotoxicity at 70.5 h was -7.85%.

Regarding `CCOC(C)c1nc(CN2CCC(C3OCCO3)CC2)cs1` (centres undefined), the cytotoxicity at 70.5 h is 9.96%.

As to `CC(C)CC(CNC(=O)c1cccnc1Oc1cccnc1)N(C)C` (centres undefined), the cytotoxicity at 70.5 h was determined as 8.64%.

As for `Cc1nc(C)n(CC2CCCN(CCCS(=O)(=O)N(C)C)C2)n1` (centres undefined), the cytotoxicity at 70.5 h was -0.887%.

As to `O=C(NCc1ccc(CN2CCCCC2)cc1)Nc1cccnc1`, the cytotoxicity at 70.5 h is -1.13%.

On to `Cc1ccc(-c2noc(CN3CCC(c4ccn[nH]4)CC3)n2)cc1`, for which the cytotoxicity at 70.5 h came out at 0.504%.

In the case of `Cc1cc(Br)oc1C(=O)N1CCC(N(C)C)CC1`, the cytotoxicity at 70.5 h came out at 33.8%.

Regarding `CC(C)CCNC(=O)c1cccnc1Oc1cccnc1`, the cytotoxicity at 70.5 h is -6.47%.

With `COc1ccc(C(CO)NC(=O)Nc2cccc(F)c2)cc1` (centres undefined), the cytotoxicity at 70.5 h is -4.24%.

As to `COc1cc(C)nc(N2CCN(C(=O)CCc3ccncc3)CC2)n1`, the cytotoxicity at 70.5 h was 28%.

Turning to `Cc1cc(C)cc(CNCCS(=O)(=O)N2CCOCC2)c1`, the cytotoxicity at 70.5 h was 33.6%.

As to `CCOC(C)c1nc(CN2CCC(NC(C)C)CC2)cs1` (centres undefined), the cytotoxicity at 70.5 h was -2.82%.

On to `N#Cc1ccccc1OCCN1CCCC(c2noc(C3CC3)n2)C1` (centres undefined), for which the cytotoxicity at 70.5 h worked out at 3.57%.

Regarding `O=S(=O)(CCNCc1ccc(Cl)cc1)N1CCOCC1`, the cytotoxicity at 70.5 h is 15.5%.
